Reference: patent US20210101899A1, “INHIBITORS OF MUTANT ISOCITRATE DEHYDROGENASES AND COMPOSITIONS AND METHODS THEREOF” (IsoCure Biosciences Inc., priority 2016, published 2021)

How the values were obtained:
Format in all cases: biochemical
[1] = target: IDH1 (R132C) (Homo sapiens, UniProt O75874, R132C); test: IDH enzyme assay, NADPH depletion by diaphorase/resazurin coupled detection; settings: pre-incubated with enzyme for 1 h at room temperature; 500 μM a-Ketoglutarate+15 μM NADPH; 10-dose, 3-fold dilution from 10 μM; read-out: Compound IC50 (nM) IDH1 (R132C)
Protocol: (§1) Compounds were tested against 3 enzymes, as provided below. Compounds were tested in 10-dose IC50 mode with 3-fold serial dilution at a starting concentration of 10 μM. Control Compounds were tested in 10-dose IC50 mode with 3-fold serial dilution starting at 1 mM or 10 mM. Assay Format: The production or depletion of NADPH by IDH enzymes was measured by diaphorase/resazurin coupled detection. Fluorescence measurement: Ex/Em=535/590 by EnVision. Compounds were pre-incubated with enzyme for 1 h at room temperature. Standard substrate: 1500 μM a-Ketoglutarate+15 μM NADPH for IDH1 (R132H). 500 μM a-Ketoglutarate+15 μM NADPH for IDH1 (R132C). 65 μM Isocitrate+50 μM NADP for IDH1.

[2] = target: IDH1 (R132H) (Homo sapiens, UniProt O75874, R132H); test: as above; settings: pre-incubated with enzyme for 1 h at room temperature; 1500 μM a-Ketoglutarate+15 μM NADPH; 10-dose, 3-fold dilution from 10 μM; read-out: Compound IC50 (nM) IDH1 (R132H)
Protocol: as §1

[3] = target: IDH1 (Homo sapiens, UniProt O75874); test: IDH enzyme assay, NADPH production by diaphorase/resazurin coupled detection; settings: IDH1 WT; pre-incubated with enzyme for 1 h at room temperature; 65 μM Isocitrate+50 μM NADP; 10-dose, 3-fold dilution from 10 μM; read-out: Compound IC50 (nM) IDH1
Protocol: as §1

Chain of IDH1 (O75874 whole entry): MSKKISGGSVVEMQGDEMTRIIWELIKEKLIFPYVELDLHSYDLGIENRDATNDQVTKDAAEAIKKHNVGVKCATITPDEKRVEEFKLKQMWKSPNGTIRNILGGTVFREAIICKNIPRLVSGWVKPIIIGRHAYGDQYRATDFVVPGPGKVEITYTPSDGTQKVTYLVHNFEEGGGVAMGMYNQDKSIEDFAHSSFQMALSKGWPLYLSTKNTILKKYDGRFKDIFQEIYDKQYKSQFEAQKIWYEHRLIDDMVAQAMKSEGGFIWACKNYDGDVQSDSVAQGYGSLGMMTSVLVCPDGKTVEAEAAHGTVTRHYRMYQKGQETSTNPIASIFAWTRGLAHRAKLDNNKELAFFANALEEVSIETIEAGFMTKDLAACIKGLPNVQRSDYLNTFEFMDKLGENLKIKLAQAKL
Chain of IDH1 (R132C) (O75874 whole entry R132C): as the sequence (O75874 whole entry) above, with R132C counted along it
Chain of IDH1 (R132H) (O75874 whole entry R132H): as the sequence (O75874 whole entry) above, with R132H counted along it

Row | SMILES | IC50 [1] [nM] | IC50 [2] [nM] | IC50 [3] [nM]
1 | C=CC(=O)Nc1cc(F)ccc1Cn1nc(C(=O)Nc2cccc([C@H](C)O)c2)c2c1C(C)CN(C(=O)c1ccc[nH]1)C2 (stereo partly drawn) [ISO-2-7, 1-(2-acrylamido-4-fluorobenzyl)-N-(3-((S)-1-hydroxyethyl)phenyl)-7-methyl-5-(1H-pyrrole-2-carbonyl)-4,5,6,7-tetrahydro-1H-pyrazolo[4,3-c]pyridine-3-carboxamide] | 247 | 153 | > 10000
2 | CC1CN(C(=O)c2ccc[nH]2)Cc2c(C(=O)Nc3cccc(NC(=O)CCl)c3)nn(Cc3ccc(F)cc3)c21 (stereo not shown) [ISO-2-5, N-(3-(2-chloroacetamido)phenyl)-1-(4-fluorobenzyl)-7-methyl-5-(1H-pyrrole-2-carbonyl)-4,5,6,7-tetrahydro-1H-pyrazolo [4,3-c]pyridine-3-carboxamide] | 2 | 3 | > 10000
3 | C=CC(=O)Nc1ccc(NC(=O)c2nn(Cc3ccc(F)cc3)c3c2CN(C(=O)c2ccc[nH]2)CC3C)cc1 (stereo not shown) [ISO-2-25, N-(4-acrylamidophenyl)-1-(4-fluorobenzyl)-7-methyl-5-(1H-pyrrole-2-carbonyl)-4,5,6,7-tetrahydro-1H-pyrazolo[4,3-c]pyridine-3-carboxamide] | 0.8 | 0.6 | 5740
4 | C=CC(=O)Nc1cc(NC(=O)c2nn(Cc3ccc(F)cc3)c3c2CN(C(=O)c2ccc[nH]2)CC3C)ccc1OC (stereo not shown) [ISO-2-30, N-(3-acrylamido-4-methoxyphenyl)-1-(4-fluorobenzyl)-7-methyl-5-(1H-pyrrole-2-carbonyl)-4,5,6,7-tetrahydro-1H-pyrazolo [4,3-c]pyridine-3-carboxamide] | 8 | 1 | 
5 | C=CC(=O)NC1CC(NC(=O)c2nn(Cc3ccc(F)cc3)c3c2CN(C(=O)c2ccc[nH]2)CC3C)C1 (stereo not shown) [ISO-2-20, N-(3-acrylamidocyclobutyl)-1-(4-fluorobenzyl)-7-methyl-5-(1H-pyrrole-2-carbonyl)-4,5,6,7-tetrahydro-1H-pyrazolo[4,3-c]pyridine-3-carboxamide] | 7370 | 5480 | > 10000
6 | C=CC(=O)Nc1cccc(NC(=O)c2nn(Cc3ccc(F)cc3)c3c2CN(C(=O)c2ccc[nH]2)CC3C)c1 (stereo not shown) [ISO-2-4, N-(3-acrylamidophenyl)-1-(4-fluorobenzyl)-7-methyl-5-(1H-pyrrole-2-carbonyl)-4,5,6,7-tetrahydro-1H-pyrazolo[4,3-c]pyridine-3-carboxamide] | 121 | 49 | > 10000
7 | C=CC(=O)N1CC(NC(=O)c2nn(Cc3ccc(F)cc3)c3c2CN(C(=O)c2ccc[nH]2)CC3C)C1 (stereo not shown) [ISO-2-10, N-(1-acryloylazetidin-3-yl)-1-(4-fluorobenzyl)-7-methyl-5-(1H-pyrrole-2-carbonyl)-4,5,6,7-tetrahydro-1H-pyrazolo[4,3-c]pyridine-3-carboxamide] | 9500 | > 10000 | > 10000
8 | C=CC(=O)N1CCCC(NC(=O)c2nn(Cc3ccc(F)cc3)c3c2CN(C(=O)c2ccc[nH]2)CC3C)C1 (stereo not shown) [ISO-2-6, N-(1-acryloylpiperidin-3-yl)-1-(4-fluorobenzyl)-7-methyl-5-(1H-pyrrole-2-carbonyl)-4,5,6,7-tetrahydro-1H-pyrazolo[4,3-c]pyridine-3-carboxamide] | > 10000 | > 10000 | > 10000
9 | C=CC(=O)Nc1ccc(NC(=O)c2nn(Cc3ccc(F)cc3)c3c2CN(C(=O)c2ccc[nH]2)C[C@@H]3C)cc1 [ISO-2-25-S] | 7720 | 1360 | 
10 | C=CC(=O)Nc1cc(Cn2nc(C(=O)Nc3cccc([C@H](C)O)c3)c3c2C(C)CN(C(=O)c2ccc[nH]2)C3)ccc1F (stereo partly drawn) [ISO-2-3, 1-(3-acrylamido-4-fluorobenzyl)-N-(3-((S)-1-hydroxyethyl)phenyl)-7-methyl-5-(1H-pyrrole-2-carbonyl)-4,5,6,7-tetrahydro-1H-pyrazolo[4,3-c]pyridine-3-carboxamide] | 77 | 34 | ≥ 10000
11 | C=CC(=O)Nc1cc(NC(=O)c2nn(Cc3ccc(F)cc3)c3c2CN(C(=O)c2ccc[nH]2)C[C@H]3C)ccc1OC [ISO-2-30-R] | 14 | 6 | 2210
12 | C=CC(=O)Nc1cccc(CNC(=O)c2nn(Cc3ccc(F)cc3)c3c2CN(C(=O)c2ccc[nH]2)CC3C)c1 (stereo not shown) [ISO-2-32, N-(3-acrylamidobenzyl)-1-(4-fluorobenzyl)-7-methyl-5-(1H-pyrrole-2-carbonyl)-4,5,6,7-tetrahydro-1H-pyrazolo[4,3-c]pyridine-3-carboxamide] | 7500 | 3150 | 
13 | C=CC(=O)Nc1ccc(Cn2nc(C(=O)Nc3cccc(C)c3)c3c2C(C)CN(C(=O)c2ccc[nH]2)C3)cc1C (stereo not shown) [ISO-2-28, 1-(4-acrylamido-3-methylbenzyl)-7-methyl-5-(1H-pyrrole-2-carbonyl)-N-(m-tolyl)-4,5,6,7-tetrahydro-1H-pyrazolo[4,3-c]pyridine-3-carboxamide] | 5550 | 149 | > 10000
14 | C=CC(=O)NCc1cc(Cn2nc(C(=O)Nc3cccc(C)c3)c3c2C(C)CN(C(=O)c2ccc[nH]2)C3)ccc1F (stereo not shown) [ISO-2-2, 1-(3-(acrylamidomethyl)-4-fluorobenzyl)-7-methyl-5-(1H-pyrrole-2-carbonyl)-N-(m-tolyl)-4,5,6,7-tetrahydro-1H-pyrazolo[4,3-c]pyridine-3-carboxamide] | 152 | 33 | > 10000
15 | Cc1cccc(NC(=O)c2nn(Cc3ccc(F)c(NC(=O)/C=C/CCl)c3)c3c2CN(C(=O)c2ccc[nH]2)CC3C)c1 (stereo not shown) [ISO-2-36, (E)-1-(3-(4-chlorobut-2-enamido)-4-fluorobenzyl)-7-methyl-5-(1H-pyrrole-2-carbonyl)-N-(m-tolyl)-4,5,6,7-tetrahydro-1H-pyrazolo[4,3-c]pyridine-3-carboxamide] | 8 | 0.5 | 
16 | C=CC(=O)Nc1cc(NC(=O)c2nn(Cc3ccc(F)cc3)c3c2CN(C(=O)c2ccc[nH]2)CC3C)ccc1Cl (stereo not shown) [ISO-2-29, N-(3-acrylamido-4-chlorophenyl)-1-(4-fluorobenzyl)-7-methyl-5-(1H-pyrrole-2-carbonyl)-4,5,6,7-tetrahydro-1H-pyrazolo [4,3-c]pyridine-3-carboxamide] | 61 | 14 | 
17 | C=CC(=O)Nc1cc(NC(=O)c2nn(Cc3ccc(F)cc3)c3c2CN(C(=O)c2ccc[nH]2)C[C@@H]3C)ccc1OC [ISO-2-30-S] | 1180 | 839 | 
18 | C=CC(=O)Nc1ccc2c(Cn3nc(C(=O)Nc4cccc(C)c4)c4c3C(C)CN(C(=O)c3ccc[nH]3)C4)cccc2c1 (stereo not shown) [ISO-2-38, 1-((6-acrylamidonaphthalen-1-yl)methyl)-7-methyl-5-(1H-pyrrole-2-carbonyl)-N-(m-tolyl)-4,5,6,7-tetrahydro-1H-pyrazolo[4,3-c]pyridine-3-carboxamide] | 4 | 0.5 | 
19 | C=CC(=O)N1CCc2ccc(NC(=O)c3nn(Cc4ccc(F)cc4)c4c3CN(C(=O)c3ccc[nH]3)CC4C)cc21 (stereo not shown) [ISO-2-31, N-(1-acryloylindolin-6-yl)-1-(4-fluorobenzyl)-7-methyl-5-(1H-pyrrole-2-carbonyl)-4,5,6,7-tetrahydro-1H-pyrazolo[4,3-c]pyridine-3-carboxamide] | 27 | 5 | 
